Usually half-life stands for how long it takes for the measured level to halve. Broadly, the IC50 is the midpoint of a concentration-inhibition curve. A word on the CC50: it is the concentration that lowers cell viability or growth by half. High values mean lower toxicity to the cells, low ones greater toxicity to the cells.

A value given as a limit tells only on which side of the number the result lay.

Data set [1] can be described thus: Metabolic stability in human liver microsomes assessed as half life. It is filed as ADME, Microsome. For orientation: Liver microsomes are a subcellular fraction often used to study metabolism.
Data set [2] relates to Hepatitis B virus. The data set can be described thus: Antiviral activity against Hepatitis B virus infected HepG2(2.2.15) cells assessed as inhibition of viral cytoplasmic DNA synthesis by real-time PCR. It counts as functional, organism-based.
Data set [3] is described as follows: Cytotoxicity against human HepG2(2.2.15) cells. It is filed as cell-based.
In data set [4] the test system is Hepatitis B virus. The data set can be described thus: Ratio of compound IC50 to adefovir dipivoxil IC50 for Hepatitis B virus. It is filed as functional.
Data set [5] in a line: Selectivity index, ratio of CC50 for human HepG2(2.2.15) cells to IC50 for Hepatitis B virus. It counts as functional.
Another data set is filed under the species Homo sapiens. The data set can be described thus: Metabolic stability in human plasma assessed as half life.

In the case of `COC(=O)[C@H](C(C)C)N1CCCO[P@]1(=O)COCCn1cnc2c(N)ncnc21.O=C(O)/C=C/C(=O)O`, the half-life in data set [1] was 3.6 h; in the data set listed under Homo sapiens, greater than 6 h. For the same compound, the IC50 with Hepatitis B virus [2] amounted to 0.12 µM. The CC50 in data set [3] was 577 µM. Further, the Ratio in the data set with Hepatitis B virus [4] was 3. Further, the “Ratio CC50/IC50” value in data set [5] amounted to 4800.
In the case of `COC(=O)[C@H](C(C)C)N1CCCO[P@@]1(=O)COCCn1cnc2c(N)ncnc21.O=C(O)/C=C/C(=O)O`, the half-life in data set [1] was greater than 6 h.
Take `COC(=O)[C@H](CC(C)C)N1CCCOP1(=O)COCCn1cnc2c(N)ncnc21.O=C(O)/C=C/C(=O)O` (some centres not stated): in the data set on Hepatitis B virus [2], the IC50 came to 0.32 µM. It took 222 µM to reach half-maximal cytotoxicity in data set [3] (CC50). Besides, in data set [5], the “Ratio CC50/IC50” value was determined as 694.
On the same counts, the results for `CCOC(=O)[C@@H](C(C)C)N1CCCO[P@@]1(=O)COCCn1cnc2c(N)ncnc21.O=C(O)/C=C/C(=O)O` are 50 µM, 439 µM and 9.
On to `CC(C)OC(=O)[C@H](C(C)C)N1CCCO[P@]1(=O)COCCn1cnc2c(N)ncnc21.O=C(O)/C=C/C(=O)O`, for which, in the data set on Hepatitis B virus [2], the IC50 was found to be 5.76 µM. Also, the CC50 in data set [3] was found to be 592 µM. The “Ratio CC50/IC50” value in data set [5] is 103.
Turning to `CCOC(=O)[C@@H](C(C)C)N1CCCO[P@]1(=O)COCCn1cnc2c(N)ncnc21.O=C(O)/C=C/C(=O)O`, the IC50 in the data set with Hepatitis B virus [2] came to 50 µM. In data set [3], this compound gave a CC50 of 400 µM. Moreover, the “Ratio CC50/IC50” value in data set [5] is given as 8.
For `CC(C)(C)C(=O)OCOP(=O)(COCCn1cnc2c(N)ncnc21)OCOC(=O)C(C)(C)C` [ADEFOVIR DIPIVOXIL], the IC50 in the data set on Hepatitis B virus [2] was determined as 0.33 µM. For the same compound, in data set [3], the CC50 worked out at 555 µM.
For `COC(=O)[C@H](C)N1CCCO[P@@]1(=O)COCCn1cnc2c(N)ncnc21.O=C(O)/C=C/C(=O)O`, the IC50 with Hepatitis B virus [2] worked out at 0.91 µM. The compound also showed a CC50 in data set [3] of 590 µM. The “Ratio CC50/IC50” value in data set [5] was 649.
As for `COC(=O)CN1CCCOP1(=O)COCCn1cnc2c(N)ncnc21.O=C(O)/C=C/C(=O)O` (racemic), the IC50 in the data set with Hepatitis B virus [2] came out at 0.88 µM. Besides, it took 602 µM to reach half-maximal cytotoxicity in data set [3] (CC50). Moreover, the “Ratio CC50/IC50” value in data set [5] was 683.
On the same counts, the results for `COC(=O)[C@H](Cc1ccccc1)N1CCCOP1(=O)COCCn1cnc2c(N)ncnc21.O=C(O)/C=C/C(=O)O` (some centres not stated) are 2.62 µM, 726 µM and 277.
As for `CCOC(=O)[C@H](C(C)C)N1CCCO[P@@]1(=O)COCCn1cnc2c(N)ncnc21.O=C(O)/C=C/C(=O)O`, the IC50 in the data set on Hepatitis B virus [2] is 50 µM. For the same compound, half-maximal cytotoxicity in data set [3] (CC50) was put at 468 µM. For the same compound, the “Ratio CC50/IC50” value in data set [5] came out at 9.
On the same counts, the results for `CCOC(=O)[C@H](C(C)C)N1CCCO[P@]1(=O)COCCn1cnc2c(N)ncnc21.O=C(O)/C=C/C(=O)O` are 3 µM, 560 µM and 187.
On the same counts, the results for `COC(=O)[C@H](C)N1CCCO[P@]1(=O)COCCn1cnc2c(N)ncnc21.O=C(O)/C=C/C(=O)O` are 0.51 µM, 650 µM and 1270.
For `CCC(C)[C@@H](C(=O)OC)N1CCCOP1(=O)COCCn1cnc2c(N)ncnc21.O=C(O)/C=C/C(=O)O` (some centres not stated), in the data set on Hepatitis B virus [2], the IC50 was 2.21 µM. The CC50 in data set [3] amounted to 648 µM. Moreover, the “Ratio CC50/IC50” value in data set [5] was found to be 293.

Source of the values: ChEMBL document CHEMBL1156738, “Design, synthesis and evaluation of novel oxazaphosphorine prodrugs of 9-(2-phosphonomethoxyethyl)adenine (PMEA, adefovir) as potent HBV inhibitors” (Bioorg Med Chem Lett, 2009).
